Assay results taken from US7709223B2, “Method for detecting bacteria with chromogenic substrates for β-D-ribofuranosidase” (priority 2001, dated 2010).
Structures can show the parent of a compound that is named as a salt.

Experiments:
Experiment in all cases: Hydrolysis on Columbia agar with ferric ammonium citrate
[1] = test system: C. diversus; assay type: cell-based; design: key to the marks not given beside the values
Method: (§1) The chromogenic β-D-ribofuranoside substrate was added to Columbia agar at a substrate concentration of 300 mg/l. Ferric ammonium citrate was included at 500 mg/l. All ingredients were autoclaved at 116° C. for 20 minutes to ensure sterilisation. Agar plates were then prepared in 90 mm petri dishes. The substrate caused a yellow colouration of the agar.
(§2) For each strain tested, a bacterial suspension was prepared in sterile deionised water at an inoculum of approximately 1.5×10^8 colony forming units per ml. This was achieved using a densitometer. 1 μl of each bacterial suspension was then inoculated onto each plate using a multipoint inoculator. Strains were inoculated in parallel onto Columbia agar containing ferric ammonium citrate with no substrate (negative control).
(§3) After 18 hours incubation, strains were examined visually for the presence of colour. Any strains producing a black colouration on substrate containing media but not on the negative control plates were deemed to be hydrolysing the substrate.

[2] = test system: Hafnia alvei; assay type: cell-based; design: key to the marks not given beside the values
Method: as §1, §2, §3

[3] = test system: Vibrio metschnikovii; assay type: cell-based; design: key to the marks not given beside the values; conditions: Vibrio metschnikovii NCTC 8443
Method: as §1, §2, §3

[4] = test system: Salmonella panama; assay type: cell-based; design: key to the marks not given beside the values; conditions: Salmonella panama SAX 58
Method: as §1, §2, §3

[5] = test system: Shigella dysenteriae; assay type: cell-based; design: key to the marks not given beside the values
Method: as §1, §2, §3

[6] = test system: Aeromonas caviae; assay type: cell-based; design: key to the marks not given beside the values; conditions: Aeromonas caviae NCTC 10852
Method: as §1, §2, §3

[7] = test system: Aeromonas sobria; assay type: cell-based; design: key to the marks not given beside the values; conditions: Aeromonas sobria NCTC 11215
Method: as §1, §2, §3

[8] = test system: E. cloacae; assay type: cell-based; design: key to the marks not given beside the values
Method: as §1, §2, §3

[9] = test system: C. freundii; assay type: cell-based; design: key to the marks not given beside the values
Method: as §1, §2, §3

[10] = test system: Haemolytic streptococcus A; assay type: cell-based
Method: as §1, §2, §3

[11] = test system: Streptococci; assay type: cell-based
Method: as §1, §2, §3

[12] = test system: Vibrio vulnificus; assay type: cell-based
Method: as §1, §2, §3

[13] = test system: Streptococcus sanguis; assay type: cell-based; conditions: Streptococcus sanguis NCTC 7863
Method: as §1, §2, §3

[14] = test system: P. aeruginosa; assay type: cell-based
Method: as §1, §2, §3

[15] = test system: Haemolytic streptococcus C; assay type: cell-based
Method: as §1, §2, §3

[16] = test system: Vibrio mimicus; assay type: cell-based; conditions: Vibrio mimicus NCTC 11435
Method: as §1, §2, §3

[17] = test system: Listeria innocua; assay type: cell-based; conditions: Listeria innocua PHLS wild
Method: as §1, §2, §3

[18] = test system: Enterococcus casseflavus; assay type: cell-based; conditions: Enterococcus casseflavus NCTC 12361
Method: as §1, §2, §3

[19] = test system: Streptococcus mitis; assay type: cell-based; conditions: Streptococcus mitis NCTC 12261
Method: as §1, §2, §3

[20] = test system: Listeria ivanovii; assay type: cell-based; conditions: Listeria ivanovii PHLS wild
Method: as §1, §2, §3

[21] = test system: enterococci; assay type: cell-based; conditions: enterococci (‘faecal streptococci’)
Method: as §1, §2, §3

[22] = test system: Enterococcus faecium; assay type: cell-based
Method: as §1, §2, §3

[23] = test system: Streptococcus oralis; assay type: cell-based; conditions: Streptococcus oralis NCTC11427
Method: as §1, §2, §3

[24] = test system: Haemolytic streptococcus G; assay type: cell-based
Method: as §1, §2, §3

[25] = test system: Enterococcus durans; assay type: cell-based; conditions: Enterococcus durans NCTC 8307
Method: as §1, §2, §3

[26] = test system: staphylococci; assay type: cell-based; conditions: all of the staphylococci
Method: as §1, §2, §3

[27] = test system: Vibrio alcaligenes; assay type: cell-based; conditions: Vibrio alcaligenes NCTC 12160
Method: as §1, §2, §3

[28] = test system: Streptococcus milleri; assay type: cell-based; conditions: Streptococcus milleri wild
Method: as §1, §2, §3

[29] = test system: A. lwoffii; assay type: cell-based; conditions: A. lwoffii ATCC 15309
Method: as §1, §2, §3

[30] = test system: A. baumanii; assay type: cell-based; conditions: A. baumanii ATCC 19606
Method: as §1, §2, §3

[31] = test system: Bacillus cereus; assay type: cell-based; conditions: Bacillus cereus NCTC
Method: as §1, §2, §3

[32] = test system: M. morganii; assay type: cell-based
Method: as §1, §2, §3

[33] = test system: C. diphtheriae; assay type: cell-based, Corynebacterium diphtheriae
Method: as §1, §2, §3

O=c1cc(-c2ccc(OC3OC(CO)C(O)C3O)c(O)c2)oc2ccccc12 [DHF-riboside, 3′,4′-Dihydroxyflavone-4′-β-D-ribofuranoside sodium salt]
++: β-Riboside (hydrolysis) ([1]; C. diversus CDI 1) | β-Riboside (hydrolysis) ([1]; C. diversus CDI 2) | β-Riboside (hydrolysis) ([2]; Hafnia alvei HAL 2) | β-Riboside (hydrolysis) ([2]; Hafnia alvei NCTC 8105) | β-Riboside (hydrolysis) [3] | β-Riboside (hydrolysis) [4] | β-Riboside (hydrolysis) ([5]; Shigella dysenteriae (type 2) NCTC 9952) | β-Riboside (hydrolysis) ([5]; Shigella dysenteriae (type 3) NCTC 9720) | β-Riboside (hydrolysis) ([5]; Shigella dysenteriae (type 4) NCTC 9759) | β-Riboside (hydrolysis) [6] | β-Riboside (hydrolysis) [7] | β-Riboside (hydrolysis) ([8]; E. cloacae ECL 1) | β-Riboside (hydrolysis) ([8]; E. cloacae ECL 2) | β-Riboside (hydrolysis) ([8]; E. cloacae ECL 3) | β-Riboside (hydrolysis) ([8]; E. cloacae ECL 4) | β-Riboside (hydrolysis) ([8]; E. cloacae NCTC 11936) | β-Riboside (hydrolysis) ([9]; C. freundii CFR 1) | β-Riboside (hydrolysis) ([9]; C. freundii CFR 2) | β-Riboside (hydrolysis) ([9]; C. freundii CFR 3) | β-Riboside (hydrolysis) ([9]; C. freundii CFR 4) | β-Riboside (hydrolysis) ([9]; C. freundii NCTC 9750) | β-Ribofuranoside (hydrolysis) ([33]; C. diphtheriae NCTC 10356) | β-Ribofuranoside (hydrolysis) ([33]; C. diphtheriae NCTC 11397) | β-Ribofuranoside (hydrolysis) ([33]; Corynebacterium diphtheria NEQAS)
+: β-Riboside (hydrolysis) ([14]; P. aeruginosa ATCC 10145) | β-Riboside (hydrolysis) ([14]; P. aeruginosa NCTC 10662) | β-Ribofuranoside (hydrolysis) [20] | β-Ribofuranoside (hydrolysis) ([22]; Enterococcus faecium, Reference No. 4) | β-Ribofuranoside (hydrolysis) ([22]; Enterococcus faecium, Reference No. 6) | β-Ribofuranoside (hydrolysis) ([24]; Reference No. 3) | β-Riboside (hydrolysis) ([32]; M. morganii MMO 1) | β-Riboside (hydrolysis) ([32]; M. morganii MMO 2) | β-Ribofuranoside (hydrolysis) ([33]; C. diphtheriae NCTC 3987)
positive: Activity with the substrate [26]
variable: Activity with the substrate [21]
active: Activity with the substrate ([33]; Corynebacterium diphtheriae)
−: β-Ribofuranoside (hydrolysis) ([10]; Reference No. 1) | β-Ribofuranoside (hydrolysis) ([10]; Reference No. 2) | β-Ribofuranoside (hydrolysis) ([10]; Reference No. 3) | β-Riboside (hydrolysis) ([12]; Vibrio vulnificus NCTC 11066) | β-Riboside (hydrolysis) ([12]; Vibrio vulnificus NCTC 11067) | β-Ribofuranoside (hydrolysis) [13] | β-Ribofuranoside (hydrolysis) ([15]; Reference No. 1) | β-Ribofuranoside (hydrolysis) ([15]; Reference No. 67736) | β-Ribofuranoside (hydrolysis) ([15]; Reference No. 68350) | β-Riboside (hydrolysis) [16] | β-Ribofuranoside (hydrolysis) [17] | β-Ribofuranoside (hydrolysis) [18] | β-Ribofuranoside (hydrolysis) [19] | β-Ribofuranoside (hydrolysis) ([22]; Enterococcus faecium 121285 - wild ′99) | β-Ribofuranoside (hydrolysis) ([22]; Enterococcus faecium, Reference No. 1) | β-Ribofuranoside (hydrolysis) ([22]; Enterococcus faecium, Reference No. 2) | β-Ribofuranoside (hydrolysis) ([22]; Enterococcus faecium, Reference No. 3) | β-Ribofuranoside (hydrolysis) ([22]; Enterococcus faecium, Reference No. 5) | β-Ribofuranoside (hydrolysis) ([22]; Enterococcus faecium, Reference No. 7) | β-Ribofuranoside (hydrolysis) [23] | β-Ribofuranoside (hydrolysis) ([24]; Reference No. 1) | β-Ribofuranoside (hydrolysis) ([24]; Reference No. 2) | β-Ribofuranoside (hydrolysis) [25] | β-Riboside (hydrolysis) [27] | β-Ribofuranoside (hydrolysis) [28] | β-Riboside (hydrolysis) [29] | β-Riboside (hydrolysis) [30] | β-Ribofuranoside (hydrolysis) [31] | β-Riboside (hydrolysis) ([32]; M. morganii NCTC 235)
almost universally negative: Activity with the substrate [11]
